According to patent publication US10689366B2, “Compounds for MALT1 degredation” (Cornell University, priority 2016, dated 2020):

Target: T1, MALT1 (Homo sapiens, UniProt Q9UDY8)
T1 sequence (Q9UDY8 1-824): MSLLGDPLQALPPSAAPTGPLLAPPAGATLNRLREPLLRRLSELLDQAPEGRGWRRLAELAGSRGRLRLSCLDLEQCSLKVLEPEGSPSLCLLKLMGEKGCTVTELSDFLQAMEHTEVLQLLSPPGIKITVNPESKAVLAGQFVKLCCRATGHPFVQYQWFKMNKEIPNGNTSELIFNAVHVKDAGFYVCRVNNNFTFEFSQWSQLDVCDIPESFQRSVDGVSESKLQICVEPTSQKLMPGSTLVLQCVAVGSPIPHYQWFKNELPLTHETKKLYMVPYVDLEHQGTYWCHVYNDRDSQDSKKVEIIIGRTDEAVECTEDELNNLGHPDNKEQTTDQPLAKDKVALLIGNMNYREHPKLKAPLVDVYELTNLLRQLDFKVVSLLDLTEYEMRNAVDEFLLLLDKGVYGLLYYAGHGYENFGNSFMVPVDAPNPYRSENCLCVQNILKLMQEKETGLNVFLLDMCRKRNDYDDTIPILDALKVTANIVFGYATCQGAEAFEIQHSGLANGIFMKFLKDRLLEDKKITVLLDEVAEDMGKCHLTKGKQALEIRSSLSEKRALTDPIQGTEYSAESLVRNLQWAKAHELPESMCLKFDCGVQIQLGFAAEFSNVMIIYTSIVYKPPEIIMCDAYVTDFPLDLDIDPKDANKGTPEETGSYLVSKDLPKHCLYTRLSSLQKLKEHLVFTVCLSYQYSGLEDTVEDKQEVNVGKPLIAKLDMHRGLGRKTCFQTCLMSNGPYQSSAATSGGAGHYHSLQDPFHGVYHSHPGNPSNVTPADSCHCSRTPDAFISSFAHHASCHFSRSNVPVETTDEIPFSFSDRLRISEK
Assay: MALT1 degradation assay (Western blot) in OCI-Ly3 cells
Type: cell-based
Set-up: endogenous in cells; host or cells: OCI-Ly3
Settings: 48 hours, normalized to Actin, relative to vehicle treated cells
Procedure: In the experiments, OCI-Ly3 cells were grown for 6 hours in the presence of the indicated concentrations of Examples 1-6, 9, and 10. Proteins were extracted, analyzed by Western blot, and membranes were immunoblotted for MALT1, CRBN, and Actin. Table 3 provides the results of experimental data obtained from the example compounds of the present disclosure. In particular, OCI-Ly3 cells were grown for 48 hours in the presence of the indicated concentrations of Examples 1-19. Proteins were extracted, analyzed by Western blot, and membranes were immunoblotted for MALT1, CRBN, and Actin. Western blot bands were quantified using Image Lab software. Results were normalized to Actin expression and presented as % MALT1 degradation relative to vehicle treated cells.

Row | % MALT1 degradation at 1 µM | SMILES
1 | no degradation | CO[C@@H](C)c1c(NC(=O)Nc2cnc(-n3cc(CNC(=O)CCOCCOCCOCCOCCC(=O)N[C@H](C(=O)N4C[C@H](O)CC4C(=O)NCc4ccc(-c5scnc5C)cc4)C(C)(C)C)cn3)c(Cl)c2)cnc2cc(Cl)nn12 (stereo partly drawn) [Example 10]
2 | no degradation | CO[C@@H](C)c1c(NC(=O)Nc2cc(Cl)cnc2OCCNC(=O)CCCCCCCCOc2cccc3c2C(=O)N(C2CCC(=O)NC2=O)C3=O)cnc2cc(Cl)nn12 (stereo partly drawn) [Example 16, N-(2-((5-Chloro-3-(3-(2-chloro-7-((S)-1-methoxyethyl)pyrazolo[1,5-a]pyrimidin-6-yl)ureido)pyridin-2-yl)oxy)ethyl)-9-((2-(2,6-dioxopiperidin-3-yl)-1,3-dioxoisoindolin-4-yl)oxy)nonanamide]

Same assay, conditions: 48 hours, normalized to Actin, relative to vehicle treated cells, read-out: % MALT1 Degradation at 1 μM

Row | % MALT1 degradation at 1 µM [%] | SMILES
3 | > 50 | CO[C@@H](C)c1c(NC(=O)Nc2cc(Cl)cnc2OCCNC(=O)CCOCCOCCOCCOCCNc2cccc3c2CN(C2CCC(=O)NC2=O)C3=O)cnc2cc(Cl)nn12 (stereo partly drawn) [Example 11, N-(2-((5-Chloro-3-(3-(2-chloro-7-((S)-1-methoxyethyl)pyrazolo[1,5-a]pyrimidin-6-yl)ureido)pyridin-2-yl)oxy)ethyl)-1-((2-(2,6-dioxopiperidin-3-yl)-1-oxoisoindolin-4-yl)amino)-3,6,9,12-tetraoxapentadecan-15-amide]
4 | 31 to 50 | CO[C@@H](C)c1c(NC(=O)Nc2cc(Cl)cnc2OCCNC(=O)CCOCCNc2cccc3c2CN(C2CCC(=O)NC2=O)C3=O)cnc2cc(Cl)nn12 (stereo partly drawn) [Example 12, N-(2-((5-Chloro-3-(3-(2-chloro-7-((S)-1-methoxyethyl)pyrazolo[1,5-a]pyrimidin-6-yl)ureido)pyridin-2-yl)oxy)ethyl)-3-(2-((2-(2,6-dioxopiperidin-3-yl)-1-oxoisoindolin-4-yl)amino)ethoxy)piopanamide]
5 | > 50 | CO[C@@H](C)c1c(NC(=O)Nc2cc(Cl)cnc2OCCNC(=O)CCOCCOCCNc2cccc3c2C(=O)N(C2CCC(=O)NC2=O)C3=O)cnc2cc(Cl)nn12 (stereo partly drawn) [Example 14, N-(2-((5-Chloro-3-(3-(2-chloro-7-((S)-1-methoxyethyl)pyrazolo[1,5-a]pyrimidin-6-yl)ureido)pyridin-2-yl)oxy)ethyl)-3-(2-(2-((2-(2,6-dioxopiperidin-3-yl)-1,3-dioxoisoindolin-4-yl)amino)ethoxy)ethoxy)propanamide]
6 | > 50 | CO[C@@H](C)c1c(NC(=O)Nc2cc(Cl)cnc2OCCNC(=O)CCOCCOCCOCCOCCOCCOCCNc2cccc3c2C(=O)N(C2CCC(=O)NC2=O)C3=O)cnc2cc(Cl)nn12 (stereo partly drawn) [Example 15, N-(2-((5-Chloro-3-(3-(2-chloro-7-((S)-1-methoxyethyl)pyrazolo[1,5-a]pyrimidin-6-yl)ureido)pyridin-2-yl)oxy)ethyl)-1-((2-(2,6-dioxopiperidin-3-yl)-1,3-dioxoisoindolin-4-yl)amino)-3,6,9,12,15,18-hexaoxahenicosan-21-amide]
7 | > 50 | C[C@@H](c1c(NC(=O)Nc2cnc(-n3nccn3)c(Cl)c2)cnc2cc(Cl)nn12)N(C)C(=O)CCOCCOCCOCCN1CCN(Cc2ccc(COc3cccc4c3CN([C@H]3CCC(=O)NC3=O)C4=O)cc2)CC1 [Example 17, N-((S)-1-(2-Chloro-6-(3-(5-chloro-6-(2H-1,2,3-triazol-2-yl)pyridin-3-yl)ureido)pyrazolo[1,5-a]pyrimidin-7-yl)ethyl)-3-(2-(2-(2-(4-(4-(((2-((S)-2,6-dioxopiperidin-3-yl)-1-oxoisoindolin-4-yl)oxy)methyl)benzyl)piperazin-1-yl)ethoxy)ethoxy)ethoxy)-N-methylpropanamide]

The next lines start with the molecule.

Row | SMILES | % MALT1 degradation at 1 µM [%]
8 | CO[C@@H](C)c1c(NC(=O)Nc2cnc(-n3cc(CNC(=O)CCOCCOCCOCCOCCNc4cccc5c4C(=O)N(C4CCC(=O)NC4=O)C5=O)cn3)c(Cl)c2)cnc2cc(Cl)nn12 (stereo partly drawn) [Example 2, N-((1-(3-Chloro-5-(3-(2-chloro-7-((S)-1-methoxyethyl)pyrazolo[1,5-a]pyrimidin-6-yl)ureido)pyridin-2-yl)-1H-pyrazol-4-yl)methyl)-1-((2-(2,6-dioxopiperidin-3-yl)-1,3-dioxoisoindolin-4-yl)amino)-3,6,9,12-tetraoxapentadecan-15-amide] | > 50
9 | CO[C@@H](C)c1c(NC(=O)Nc2cc(Cl)cnc2OCCNC(=O)CCOCCOCCOCCOCCNc2cccc3c2C(=O)N(C2CCC(=O)NC2=O)C3=O)cnc2cc(Cl)nn12 (stereo partly drawn) [Example 3, N-(2-((5-Chloro-3-(3-(2-chloro-7-((S)-1-methoxyethyl)pyrazolo[1,5-a]pyrimidin-6-yl)ureido)pyridin-2-yl)oxy)ethyl)-1-((2-(2,6-dioxopiperidin-3-yl)-1,3-dioxoisoindolin-4-yl)amino)-3,6,9,12-tetraoxapentadecan-15-amide] | > 50
10 | C[C@@H](c1c(NC(=O)Nc2cnc(-n3nccn3)c(Cl)c2)cnc2cc(Cl)nn12)N(C)C(=O)CCOCCOCCNc1cccc2c1CN(C1CCC(=O)NC1=O)C2=O (stereo partly drawn) [Example 4, N—((S)-1-(2-Chloro-6-(3-(5-chloro-6-(2H-1,2,3-triazol-2-yl)pyridin-3-yl)ureido)pyrazolo[1,5-a]pyrimidin-7-yl)ethyl)-3-(2-(2-((2-(2,6-dioxopiperidin-3-yl)-1-oxoisoindolin-4-yl)amino)ethoxy)ethoxy)-N-methylpropanamide] | 31 to 50
11 | CO[C@@H](C)c1c(NC(=O)Nc2cnc(-n3cc(CNC(=O)CCOCCOCCNc4cccc5c4CN(C4CCC(=O)NC4=O)C5=O)cn3)c(Cl)c2)cnc2cc(Cl)nn12 (stereo partly drawn) [Example 5, N-((1-(3-Chloro-5-(3-(2-chloro-7-((S)-1-methoxyethyl)pyrazolo[1,5-a]pyrimidin-6-yl)ureido)pyridin-2-yl)-1H-pyrazol-4-yl)methyl)-3-(2-(2-((2-(2,6-dioxopiperidin-3-yl)-1-oxoisoindolin-4-yl)amino)ethoxy)ethoxy)propanamide] | 10 to 30
12 | CO[C@@H](C)c1c(NC(=O)Nc2cc(Cl)cnc2OCCNC(=O)CCOCCOCCNc2cccc3c2CN(C2CCC(=O)NC2=O)C3=O)cnc2cc(Cl)nn12 (stereo partly drawn) [Example 6, N-(2-((5-Chloro-3-(3-(2-chloro-7-((S)-1-methoxyethyl)pyrazolo[1,5-a]pyrimidin-6-yl)ureido)pyridin-2-yl)oxy)ethyl)-3-(2-(2-((2-(2,6-dioxopiperidin-3-yl)-1-oxoisoindolin-4-yl)amino)ethoxy)ethoxy)propanamide] | > 50
13 | CC(C)c1c(NC(=O)Nc2cnc(-n3cc(CNC(=O)CCOCCOCCNc4cccc5c4CN(C4CCC(=O)NC4=O)C5=O)cn3)c(Cl)c2)cnc2cc(Cl)nn12 (stereo not drawn) [Example 7, N-((1-(3-Chloro-5-(3-(2-chloro-7-isopropylpyrazolo[1,5-a]pyrimidin-6-yl)ureido)pyridin-2-yl)-1H-pyrazol-4-yl)methyl)-3-(2-(2-((2-(2,6-dioxopiperidin-3-yl)-1-oxoisoindolin-4-yl)amino)ethoxy)ethoxy)propanamide] | 31 to 50
14 | Cc1c(NC(=O)Nc2cnc(-n3cc(CNC(=O)CCOCCOCCNc4cccc5c4CN(C4CCC(=O)NC4=O)C5=O)cn3)c(Cl)c2)cnc2ccc(Br)cc12 (stereo not drawn) [Example 8, N-((1-(5-(3-(6-Bromo-4-methylquinolin-3-yl)ureido)-3-chloropyridin-2-yl)-1H-pyrazol-4-yl)methyl)-3-(2-(2-((2-(2,6-dioxopiperidin-3-yl)-1-oxoisoindolin-4-yl)amino)ethoxy)ethoxy)propanamide] | 31 to 50
15 | CO[C@@H](C)c1c(NC(=O)Nc2cc(Cl)cnc2OCCNC(=O)CCOCCOCCOCCOCCC(=O)N[C@H](C(=O)N2C[C@H](O)CC2C(=O)NCc2ccc(-c3scnc3C)cc2)C(C)(C)C)cnc2cc(Cl)nn12 (stereo partly drawn) [Example 9, N^1-(2-((5-Chloro-3-(3-(2-chloro-7-((S)-1-methoxyethyl)pyrazolo[1,5-a]pyrimidin-6-yl)ureido)pyridin-2-yl)oxy)ethyl)-N^16-((2S)-1-((4R)-4-hydroxy-2-((4-(4-methylthiazol-5-yl)benzyl)carbamoyl)pyrrolidin-1-yl)-3,3-dimethyl-1-oxobutan-2-yl)-4,7,10,13-tetraoxahexadecanediamide] | 10 to 30
